Legend:
Experiment in all cases: Detection of nitroreductase activity on Columbia medium with substrate
Format in all cases: cell-based
Conditions in all cases: 24 hours at 37° C.
[1] = system: Bacillus subtilis NCTC 9 372; parameters: key to Growth: NG: no growth; 0.5: low growth; 1: moderate growth; 2: good growth; key to Col. (color of the colonies) / Fluo. (fluorescence of the colonies): —: no color/fluorescence
Procedure: (§1) 40 mg of substrate were dissolved in 4 ml of dimethylsulfoxide and added to 400 ml of previously autoclaved Columbia medium. The medium was distributed in Petri dishes 90 mm in diameter at the rate of 20 ml per dish. Seventeen strains of microorganisms obtained from collections and belonging to various species of bacteria and yeasts are inoculated as spots of about 10 000 colony forming units. The media are incubated for 24 hours at 37° C. and then the colonies formed are examined visually and under a UV lamp at 365 nm.

[2] = system: Candida albicans ATCC 90 028; parameters: key to Growth: NG: no growth; 0.5: low growth; 1: moderate growth; 2: good growth; key to Col. (color of the colonies) / Fluo. (fluorescence of the colonies): —: no color/fluorescence
Procedure: as §1

[3] = system: Candida glabrata NCPF 3 943; parameters: key to Growth: NG: no growth; 0.5: low growth; 1: moderate growth; 2: good growth; key to Col. (color of the colonies) / Fluo. (fluorescence of the colonies): —: no color/fluorescence
Procedure: as §1

[4] = system: Enterococcus faecalis NCTC 775; parameters: key to Growth: NG: no growth; 0.5: low growth; 1: moderate growth; 2: good growth; key to Col. (color of the colonies) / Fluo. (fluorescence of the colonies): —: no color/fluorescence
Procedure: as §1

[5] = system: Enterococcus faecium NCTC 7 171; parameters: key to Growth: NG: no growth; 0.5: low growth; 1: moderate growth; 2: good growth; key to Col. (color of the colonies) / Fluo. (fluorescence of the colonies): —: no color/fluorescence
Procedure: as §1

[6] = system: Listeria monocytogenes NCTC 11 994; parameters: key to Growth: NG: no growth; 0.5: low growth; 1: moderate growth; 2: good growth; key to Col. (color of the colonies) / Fluo. (fluorescence of the colonies): —: no color/fluorescence
Procedure: as §1

[7] = system: Pseudomonas aeruginosa NCTC 10 662; parameters: key to Growth: NG: no growth; 0.5: low growth; 1: moderate growth; 2: good growth; key to Col. (color of the colonies) / Fluo. (fluorescence of the colonies): —: no color/fluorescence
Procedure: as §1

[8] = system: Salmonella typhimurium NCTC 74; parameters: key to Growth: NG: no growth; 0.5: low growth; 1: moderate growth; 2: good growth; key to Col. (color of the colonies) / Fluo. (fluorescence of the colonies): —: no color/fluorescence
Procedure: as §1

[9] = system: Staphylococcus aureus NCTC 11 939; parameters: key to Growth: NG: no growth; 0.5: low growth; 1: moderate growth; 2: good growth; key to Col. (color of the colonies) / Fluo. (fluorescence of the colonies): —: no color/fluorescence
Procedure: as §1

[10] = system: Staphylococcus aureus NCTC 6 571; parameters: key to Growth: NG: no growth; 0.5: low growth; 1: moderate growth; 2: good growth; key to Col. (color of the colonies) / Fluo. (fluorescence of the colonies): —: no color/fluorescence
Procedure: as §1

[11] = system: Staphylococcus epidermidis NCTC 11 047; parameters: key to Growth: NG: no growth; 0.5: low growth; 1: moderate growth; 2: good growth; key to Col. (color of the colonies) / Fluo. (fluorescence of the colonies): —: no color/fluorescence
Procedure: as §1

[12] = system: Streptococcus pyogenes NCTC 8 306; parameters: key to Growth: NG: no growth; 0.5: low growth; 1: moderate growth; 2: good growth; key to Col. (color of the colonies) / Fluo. (fluorescence of the colonies): —: no color/fluorescence
Procedure: as §1

[13] = system: Yersinia enterocolitica NCTC 11 176; parameters: key to Growth: NG: no growth; 0.5: low growth; 1: moderate growth; 2: good growth; key to Col. (color of the colonies) / Fluo. (fluorescence of the colonies): —: no color/fluorescence
Procedure: as §1

[14] = system: Enterobacter cloacae NCTC 11 936; parameters: key to Growth: NG: no growth; 0.5: low growth; 1: moderate growth; 2: good growth; key to Col. (color of the colonies): —: no color/fluorescence
Procedure: as §1

[15] = system: Escherichia coli NCTC 10 418; parameters: key to Growth: NG: no growth; 0.5: low growth; 1: moderate growth; 2: good growth; key to Col. (color of the colonies): —: no color/fluorescence
Procedure: as §1

[16] = system: Providencia rettgeri NCTC 7 475; parameters: key to Growth: NG: no growth; 0.5: low growth; 1: moderate growth; 2: good growth; key to Col. (color of the colonies): —: no color/fluorescence
Procedure: as §1

[17] = system: Serratia marcescens NCTC 10 211; parameters: key to Growth: NG: no growth; 0.5: low growth; 1: moderate growth; 2: good growth; key to Col. (color of the colonies): —: no color/fluorescence
Procedure: as §1

[18] = 40 mg substrate in 400 ml Columbia medium

## O=[N+]([O-])c1ccc(C=Cc2ccncc2)cc1 [4NSP, 4,4′-Nitrostyrylpyridine]
[1]; [18]
  Growth: NG
[1]; UV lamp at 365 nm
  Fluo. (fluorescence of the colonies): —
[1]; examined visually
  Col. (color of the colonies): —
[2]; [18]
  Growth: NG
[2]; UV lamp at 365 nm
  Fluo. (fluorescence of the colonies): —
[2]; examined visually
  Col. (color of the colonies): —
[3]; [18]
  Growth: 1
[3]; UV lamp at 365 nm
  Fluo. (fluorescence of the colonies): —
[3]; examined visually
  Col. (color of the colonies): —
[4]; [18]
  Growth: 1
[4]; UV lamp at 365 nm
  Fluo. (fluorescence of the colonies): —
[4]; examined visually
  Col. (color of the colonies): —
[5]; [18]
  Growth: 1
[5]; UV lamp at 365 nm
  Fluo. (fluorescence of the colonies): —
[5]; examined visually
  Col. (color of the colonies): —
[6]; [18]
  Growth: 1
[6]; UV lamp at 365 nm
  Fluo. (fluorescence of the colonies): —
[6]; examined visually
  Col. (color of the colonies): —
[7]; [18]
  Growth: 2
[7]; UV lamp at 365 nm
  Fluo. (fluorescence of the colonies): —
[7]; examined visually
  Col. (color of the colonies): —
[8]; [18]
  Growth: 0.5
[8]; UV lamp at 365 nm
  Fluo. (fluorescence of the colonies): —
[8]; examined visually
  Col. (color of the colonies): —
[9]; [18]
  Growth: 1
[9]; UV lamp at 365 nm
  Fluo. (fluorescence of the colonies): —
[9]; examined visually
  Col. (color of the colonies): —
[10]; [18]
  Growth: 1
[10]; UV lamp at 365 nm
  Fluo. (fluorescence of the colonies): —
[10]; examined visually
  Col. (color of the colonies): —
[11]; [18]
  Growth: 0.5
[11]; UV lamp at 365 nm
  Fluo. (fluorescence of the colonies): —
[11]; examined visually
  Col. (color of the colonies): —
[12]; [18]
  Growth: 1
[12]; UV lamp at 365 nm
  Fluo. (fluorescence of the colonies): —
[12]; examined visually
  Col. (color of the colonies): —
[13]; [18]
  Growth: 2
[13]; UV lamp at 365 nm
  Fluo. (fluorescence of the colonies): —
[13]; examined visually
  Col. (color of the colonies): —
[14]; [18]
  Growth: 2
[14]; UV lamp at 365 nm
  Fluo. (fluorescence of the colonies): Yellow
[14]; examined visually
  Col. (color of the colonies): —
[15]; [18]
  Growth: 2
[15]; UV lamp at 365 nm
  Fluo. (fluorescence of the colonies): Yellow
[15]; examined visually
  Col. (color of the colonies): —
[16]; [18]
  Growth: 2
[16]; UV lamp at 365 nm
  Fluo. (fluorescence of the colonies): Pale yellow
[16]; examined visually
  Col. (color of the colonies): —
[17]; [18]
  Growth: 2
[17]; UV lamp at 365 nm
  Fluo. (fluorescence of the colonies): Yellow
[17]; examined visually
  Col. (color of the colonies): —

Source: patent publication US8535903B2, “Nitroreductase enzymatic substrates” (BioMerieux, S.A., priority 2009, dated 2013)
